Counter-ions that a name gives are not always drawn. Like-named read-outs stand apart in the source and are kept apart here.
How the values were obtained:
[1] = molecular target: T1, Aβ(1-40) fibrils / biotinyl-Aβ(1-40) (Homo sapiens, UniProt P05067); experiment: Microplate Aβ(1-40) elongation screening assay, LOPAC library; format: biochemical; conditions: for Initial stimulation observed: original LOPAC screen, deposition of biotinyl-Aβ(1-40) on immobilized fibrils
T1 construct: purchased Keck Biotechnology Center at Yale University
T1 sequence (P05067 672-711): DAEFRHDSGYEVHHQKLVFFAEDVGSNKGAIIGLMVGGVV
Experimental: Microtiterplate Elongation and Screening Assays. The Aβ(1-40) microplate elongation assay has been described (12). For screening the compound library, plates were coated with 100 ng Aβ(1-40) fibrils and washed. The assay was initiated by adding to each well, in order, 80 μl assay buffer [PBSA (phosphate-buffered saline containing 0.05% (w/v) sodium azide) containing 0.05% Tween 20], 10 μl of a 1 mM solution of test compound in DMSO, and 10 μl 100 nM biotinyl-Aβ in assay buffer. Plates were incubated 30 mins at 37° C., then washed and the signal developed as described using a streptavidin-europium linked fluorescence assay (12, 13). Each microplate collection of compounds was assayed in triplicate, and results reported as % inhibition compared to control wells lacking test compounds.
We screened a small library of 640 compounds, the LOPAC library (Sigma), using a microplate-based Aβ elongation assay. In this assay, plastic wells containing immobilized fibrils are incubated with a biotin-tagged monomer in the presence or absence of potential modifiers (13, 18). We found a number of compounds with potent abilities to enhance deposition of the biotin-tagged Aβ(1-40) (FIG. 1). Seven of the compounds were selected for further analysis:—amiloride HCl, phenamil methane sulfonate, naftopidil dihydrochloride, NPC 15437 dihydrochloride, calmidazolium chloride (R24571), 5-(nonoxyl)-tryptamine hydrogen oxalate, and L-α-methyl DOPA. The compounds have a wide variety of structures and biochemical properties. The structures of these seven compounds are shown in FIG. 9, along with the percent stimulation observed in the experiments.
We characterized the activity of CLC in the microplate assay in more detail.

Aβ = molecular target: T2, Aβ (Homo sapiens, UniProt P05067); experiment: Secondary screening: aggregate formation in the absence of seeding Aβ amyloid fibrils; format: biochemical
T2 construct: purchased Keck Biotechnology Center at Yale University
T2 sequence (P05067 672-711 limits assumed): as the sequence (P05067 672-711) above
Description: Four compounds—calmidazolium chloride, NPC 15437, phenamil methane sulfonate, and amiloride HCl were chosen for secondary screening, e.g., assaying for formation of stabilized Aβ protofibrillar aggregates in the absence of seeding Aβ amyloid fibrils. All four compounds to be retested were purchased from Sigma.

Aβ(1-40) = molecular target: T3, Aβ(1-40) (Homo sapiens, UniProt P05067); experiment: Solution phase aggregation assay (ThT fluorescence, HPLC of centrifugation supernatants); format: biochemical
T3 construct: purchased Keck Biotechnology Center at Yale University
T3 sequence (P05067 672-711): as above
Experimental: Aβ(1-40) peptides were disaggregated just prior to use, as described previously (12, 14). Peptides (50 μM in fibril formation reactions, approximately 30 μM in CLC aggregation reactions) were incubated in […] at 37° C. Reaction progress was followed by ThT fluorescence and/or quantitative HPLC on centrifugation (30 mins, 315,000×g) supernatants of reaction aliquots (12, 15). The Cr value is the concentration of Aβ in solution when this value stops changing with time. For amyloid fibril growth, this value represents a position of dynamic equilibrium and is the reciprocal of the growth equilibrium constant for the amyloid fibrils (15); for the CLC-induced aggregation, the value is a more qualitative measure of the stability of the Aβ-CLC aggregates. Samples of aggregates were stored at −80° C. after snap-freezing of washed pellets. Reactions with CLC contained 10% DMSO from the CLC stock solution.
To confirm the microtiter plate assay, we carried out solution phase experiments using unlabelled Aβ(1-40). […] During the ThT lag phase, the amount of soluble, monomeric Aβ is reduced by about a factor of two, consistent with the formation of protofibrillar structures with low ThT response (2). In contrast, in the presence of 100 μM CLC, Aβ(1-40) is rapidly converted to a pelletable aggregate, so that within 1-2 hrs only 2-3 μM Aβ remains in solution after centrifugation (FIG. 3a,b); when these aggregates are isolated by sedimentation, they are found to contain a ratio of 4 moles of CLC per mole of Aβ(1-40) (results of independent analyses against both HPLC and MS standard curves). The significance of this ratio is not clear.

[2] = molecular target: CLC-Aβ(1-40) aggregates (stabilized Aβ protofibrillar aggregates made with calmidazolium chloride); experiment: solution phase aggregation with 100 µM CLC; HPLC of centrifugation supernatants
Aβ (1-42) = molecular target: T4, Aβ (1-42) (Homo sapiens, UniProt P05067); conditions: cited from earlier work
T4 construct: polymeric sheet intermediates using Aβ (1-42) and a compound Ro 90-7501
T4 sequence (P05067 672-713): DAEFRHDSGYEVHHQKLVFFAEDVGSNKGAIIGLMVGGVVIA

[3] = stimulation of Aβ deposition, microplate assay, read-out: EC50

Molecule | Initial stimulation observed [1] | EC50 [1, 3] | Activity in enhancing aggregate formation (Aβ) | also measured
N=C(N)NC(=O)c1nc(Cl)c(N)nc1N [Amiloride HCl, amiloride HCl] | 96% | ≥ 38.5 µM | sub-optimal activity | –
P4: tetra-substituted Aβ(1-40) mutant with prolines at positions 9, 23, 30 and 37, SEQ ID NO:34 (DAEFRHDSPYEVHHQKLVFFAEPVGSNKGPIIGLMVPGVV; Amyloid-beta protein 40; UniProt P05067 672-711, looked up, variant G9P D23P A30P G37P) | – | – | – | Stability of amyloid fibrils (Aβ(1-40); scanning proline mutagenesis): same stability as wild type Aβ(1-40); Stability of CLC aggregates (Aβ(1-40); scanning proline mutagenesis, 100 μM CLC): significantly destabilized compared to WT
WT Aβ(1-40): wild type Aβ(1-40) peptide, SEQ ID NO:1 | – | – | – | Cr value, protofibril formation (Aβ(1-40); CLC-induced aggregation): 1.6 µM; Cr value, fibril formation (Aβ(1-40); amyloid fibril growth): 0.8 µM
NC(=Nc1ccccc1)NC(=O)c1nc(Cl)c(N)nc1N [Phenamil methane sulfonate, phenamil methane sulfonate] | 242% | ≥ 35.5 µM | sub-optimal activity | –
C[C@](N)(Cc1ccc(O)c(O)c1)C(=O)O [L-α-methyl DOPA] | 127% | ≥ 34.2 µM | – | –
CCCCCCCCCCCCC(=O)N1CCCCC1CNC(=O)C(N)CCCCN (stereo not shown) [NPC15437] | 149% | > 27.2 µM | sub-optimal activity | –
wild type Aβ(1-40) (disaggregated, monomeric) (peptide) | – | – | – | Cr (concentration of Aβ in solution when it stops changing with time) [2]: 1.6 µM
COc1ccccc1N1CCN(CC(O)COc2cccc3ccccc23)CC1 (stereo not shown) [Naftopidil dihydrochloride, naftopidil dihydrochloride] | 150% | ≥ 36.2 µM | – | –
Nc1ccc(-c2nc3ccc(-c4nc5ccc(N)cc5[nH]4)cc3[nH]2)cc1 [Ro 90-7501] | – | – | – | Effect on formation of mature fibrils (Aβ (1-42)): retarded but did not block formation of mature fibrils
CCCCCCCCCOc1ccc2[nH]cc(CCN)c2c1.O=C(O)C(=O)O [5-(nonyloxy)-tryptamine hydrogen oxalate] | 136% | – | – | EC50 [1]: ≥ 30.3 µM
Clc1ccc(C(c2ccc(Cl)cc2)n2cc[n+](CC(OCc3ccc(Cl)cc3Cl)c3ccc(Cl)cc3Cl)c2)cc1 (stereo not shown) [Calmidazolium chloride, calmidazolium chloride] | 598% | ≥ 21.4 µM | potent stabilizing compound | Stimulation of Aβ deposition compared to the elongation reaction in the absence of added compound ([1]; at 100 μM): about six; Concentrations at which deposition is stimulated (dose response) ([1]; deposition of 10 nM Aβ): 10 to 100 µM; ThT signal relative to the same weight of mature amyloid fibrils (Aβ(1-40); 100 μM CLC, after 14 days): about 20%; Aβ remaining in solution after centrifugation (Aβ(1-40); 100 μM CLC, within 1-2 hrs): 2 to 3 µM
